Results taken from the Deep4Chem optical property database.

Experiment: solvent given as SMILES

CCOC(=O)CN1C(=O)C2=C(c3ccc(N4CCCCC4)cc3)N(CC(=O)OCC)C(=O)C2=C1c1ccc(N2CCCCC2)cc1
emission maximum (in CC#N): 590 nm
emission maximum (in CS(C)=O): 603 nm
emission maximum (in Cc1ccccc1): 575 nm

CC(C)(C)c1cc(/C2=C3\C=CC(=N3)/C(c3ccc([N+](=O)[O-])cc3)=c3/cc/c([nH]3)=C(\c3ccc([N+](=O)[O-])cc3)C3=N/C(=C(/c4cc(C(C)(C)C)cc(C(C)(C)C)c4)c4cc2c[nH]4)C=C3)cc(C(C)(C)C)c1
emission maximum (in CC(=O)N(C)C): 717 nm

CC1(C)c2ccccc2N(c2ccccc2)c2ccc(-c3ccc(C(=O)c4ccc(-c5ccc6c(c5)C(C)(C)c5ccccc5N6c5ccccc5)cc4)cc3)cc21
emission maximum (in Cc1ccccc1): 449.72 nm
emission maximum (in O=P(c1ccccc1)(c1ccccc1)c1ccccc1Oc1ccccc1P(=O)(c1ccccc1)c1ccccc1): 475 nm

CCCCCCCCN1c2ccc(C#Cc3ccc(OC)cc3)cc2Sc2cc(C=O)ccc21
emission maximum (in C1CCOC1): 512 nm
emission maximum (in CC#N): 538 nm
emission maximum (in CCCCCC): 494 nm
emission maximum (in CO): 464 nm
emission maximum (in CS(C)=O): 524 nm
emission maximum (in Cc1ccccc1): 510 nm
emission maximum (in ClC(Cl)Cl): 524 nm

CCc1c(C)[nH]c(C2=[N+]3C(=C(C)c4c(C)c(CC)c(C)n4[B-]3(F)F)c3ccccc32)c1C
emission maximum (in C1CCOC1): 656 nm
emission maximum (in CC#N): 652 nm
emission maximum (in CCCCCC): 636 nm
emission maximum (in CO): 650 nm
emission maximum (in Cc1ccccc1): 646 nm
emission maximum (in ClCCl): 645 nm

CN(C)c1ccc(-c2nc3c(c4c2-c2ccccc2CC4)-c2ccccc2CC3)cc1
emission maximum (in C1CCOC1): 452 nm
emission maximum (in CC#N): 463 nm
emission maximum (in CCCCCC): 422 nm
emission maximum (in CCOC(C)=O): 449 nm
emission maximum (in CO): 460 nm
emission maximum (in CS(C)=O): 470 nm
emission maximum (in Cc1ccccc1): 436 nm
emission maximum (in ClCCl): 449 nm

COc1cc(OC)c2ccc(=O)oc2c1
emission maximum (in CC(C)O): 417 nm
emission maximum (in CCO): 425 nm
emission maximum (in CCOCC): 390 nm
emission maximum (in CO): 432 nm
emission maximum (in O): 450 nm

COc1ccc(-c2nnc(-c3cc(-n4c5ccccc5c5ccccc54)c(-n4c5ccccc5c5ccccc54)cc3-c3nnc(-c4ccc(OC)cc4)o3)o2)cc1
emission maximum (in CC#N): 515.81 nm
emission maximum (in Cc1ccccc1): 459 nm
emission maximum (in ClCCl): 487.92 nm

COC(=O)C(NC(=O)OC(C)(C)C)c1ccc2oc(-c3ccc(O)cc3O)nc2c1 (centres undefined)
emission maximum (in CC1CCCCC1): 470 nm
emission maximum (in CC#N): 380 nm
emission maximum (in CO): 365 nm

O=c1c2cc(S(=O)(=O)Cl)ccc2[nH]c2ccc(S(=O)(=O)Cl)cc12
emission maximum (in CS(C)=O): 417 nm

CCN(CC)c1ccc(-c2nc(Oc3ccc(-c4nc5cc([N+](=O)[O-])ccc5[nH]4)cc3)nc(Oc3ccc(-c4nc5cc([N+](=O)[O-])ccc5[nH]4)cc3)n2)cc1
emission maximum (in CN(C)C=O): 429 nm

CN(C)c1ccc(-c2ncnc3ccccc23)cc1
emission maximum (in C1CCCCC1): 421 nm
emission maximum (in C1CCOC1): 483 nm
emission maximum (in CC#N): 529 nm
emission maximum (in CS(C)=O): 543 nm
emission maximum (in ClCCl): 490 nm

CCOc1cc2c(cc1/C=C/C(=C(C#N)C#N)c1ccccc1)c1ccccc1n2CC
emission maximum (in C1CCOC1): 541 nm
emission maximum (in CC#N): 569 nm
emission maximum (in CCO): 575 nm
emission maximum (in CCOC(C)=O): 537 nm
emission maximum (in CN(C)C=O): 573 nm
emission maximum (in CS(C)=O): 575 nm
emission maximum (in Cc1ccccc1): 522 nm
emission maximum (in ClC(Cl)Cl): 550 nm
emission maximum (in ClCCl): 558 nm

Cc1cc(C)c(B(c2cc(-c3ccccc3)sc2-c2sc(-c3ccccc3)cc2P(=O)(c2ccccc2)c2ccccc2)c2c(C)cc(C)cc2C)c(C)c1
emission maximum (in CO): 558 nm

CCCCCCCCCCCCOc1cc2c3cc(OCCCCCCCCCCCC)c(OCCCCCCCCCCCC)cc3c3c(cc(OCCCCCCCCCCCC)c4nc5cc(C#Cc6ccc(OCCC(C)CCCC(C)C)cc6)c(C#Cc6ccc(OCCC(C)CCCC(C)C)cc6)cc5nc43)c2cc1OCCCCCCCCCCCC (centres undefined)
emission maximum (in ClC(Cl)Cl): 660 nm

Cc1ccc(-c2ccc(/C=C/c3ccc(Br)n3C)cn2)nc1
emission maximum (in CC#N): 480 nm

CCCCCCCCCC[n+]1cc2ccc3c[n+](CCCCCCCCCC)cc4ccc(c1)c2c34
emission maximum (in CC#N): 424 nm

O=P1(c2ccccc2)c2ccccc2-c2sc3ccccc3c21 (centres undefined)
emission maximum (in C1CCCCC1): 417 nm
emission maximum (in CC#N): 427 nm
emission maximum (in CCO): 434 nm
emission maximum (in ClCCl): 428 nm

N#Cc1c(-n2c3ccccc3c3cc(Br)ccc32)c(C#N)c(-n2c3ccccc3c3cc(Br)ccc32)c(-n2c3ccccc3c3cc(Br)ccc32)c1-n1c2ccccc2c2cc(Br)ccc21
emission maximum (in Cc1ccccc1): 515 nm

CC(NC(=O)OC(C)(C)C)C(=O)OCc1ccc2c3cccc4cccc(c5cccc1c52)c43 (centres undefined)
emission maximum (in CCO): 443 nm
